Experimental data taken from ChEMBL document CHEMBL4699438, “Toward the discovery and development of effective modulators of α-synuclein amyloid aggregation” (Eur J Med Chem, 2019).
pIC50, pKd: −log10 of the molar value.

Key:
Alpha-synuclein [1] = molecular target: T1, Alpha-synuclein (Homo sapiens, UniProt P37840); assay: Binding affinity to alpha-synuclein (unknown origin) expressed in Escherichia coli BL21(DE3) by circular dichroism analysis
[2] = Binding affinity to alpha-synuclein A69C/F94W double-mutant (unknown origin) expressed in Escherichia coli BL21(DE3) cells assessed as binding constant for binding single molecule at 10 uM incubated for 10 mins by tryptophan fluorescence assay; set-up: species or system Homo sapiens
Alpha-synuclein [3] = molecular target: T1, Alpha-synuclein; assay: Binding affinity to alpha-synuclein preformed fibrils (unknown origin) expressed in Escherichia coli BL21(DE3) cells incubated for 30 mins by spectrofluorometric analysis
[4] = Binding affinity to alpha-synuclein A69C/F94W double-mutant (unknown origin) expressed in Escherichia coli BL21(DE3) cells assessed as binding constant for binding two molecule at 10 uM incubated for 10 mins by fluorescence analysis; set-up: species or system Homo sapiens
[5] = Binding affinity to alpha-synuclein Y39W/A69C double-mutant (unknown origin) expressed in Escherichia coli BL21(DE3) cells assessed as binding constant for binding two molecule at 10 uM incubated for 10 mins by fluorescence analysis; set-up: species or system Homo sapiens
Alpha-synuclein [6] = molecular target: T1, Alpha-synuclein; assay: Inhibition of wild type alpha-synuclein aggregation (unknown origin) expressed in Escherichia coli BL21 cells incubated for 30 days by thioflavin T based fluorescence assay
[7] = Binding affinity to alpha-synuclein A69C/F94W double-mutant (unknown origin) expressed in Escherichia coli BL21(DE3) cells assessed as binding constant for binding two molecule at 10 uM by absorption spectroscopy; set-up: species or system Homo sapiens
Alpha-synuclein [8] = molecular target: T1, Alpha-synuclein; assay: Binding affinity to alpha-synuclein oligomer (unknown origin) expressed in Escherichia coli BL21(DE3) cells incubated for 30 mins by spectrofluorometric analysis
[9] = Binding affinity to alpha-synuclein A69C/F94W double-mutant (unknown origin) expressed in Escherichia coli BL21(DE3) cells assessed as binding constant for binding single molecule at 10 uM by absorption spectroscopy; set-up: species or system Homo sapiens
[10] = Binding affinity to alpha-synuclein A69C/F94W double-mutant (unknown origin) expressed in Escherichia coli BL21(DE3) cells assessed as binding constant for binding two molecule at 10 uM incubated for 10 mins by tryptophan fluorescence assay; set-up: species or system Homo sapiens
Alpha-synuclein [11] = molecular target: T1, Alpha-synuclein; assay: Inhibition of alpha-synuclein fibril formation (unknown origin) incubated for 24 hrs to 7 days by thioflavin S based fluorescence assay
[12] = Binding affinity to alpha-synuclein Y39W/A69C double-mutant (unknown origin) expressed in Escherichia coli BL21(DE3) cells assessed as binding constant for binding single molecule at 10 uM incubated for 10 mins by fluorescence analysis; set-up: species or system Homo sapiens
[13] = Binding affinity to alpha-synuclein A69C/F94W double-mutant (unknown origin) expressed in Escherichia coli BL21(DE3) cells assessed as binding constant for binding single molecule at 10 uM incubated for 10 mins by fluorescence analysis; set-up: species or system Homo sapiens
Alpha-synuclein [14] = molecular target: T1, Alpha-synuclein; assay: Binding affinity to alpha-synuclein LMV 50 kDa (unknown origin) expressed in Escherichia coli BL21(DE3) cells incubated for 30 mins by spectrofluorometric analysis
Alpha-synuclein [15] = molecular target: T1, Alpha-synuclein; assay: Binding affinity to alpha-synuclein LMV 100 kDa (unknown origin) expressed in Escherichia coli BL21(DE3) cells incubated for 30 mins by spectrofluorometric analysis

| Compound | pKd (Alpha-synuclein [1]) | pKd [2] | pKd (Alpha-synuclein [3]) | pKd [4] | pKd [5] | pIC50 (Alpha-synuclein [6]) | pKd [7] | pKd (Alpha-synuclein [8]) | pKd [9] | pKd [10] | pIC50 (Alpha-synuclein [11]) | pKd [12] | pKd [13] | pKd (Alpha-synuclein [14]) | pKd (Alpha-synuclein [15]) |
| --- | --- | --- | --- | --- | --- | --- | --- | --- | --- | --- | --- | --- | --- | --- | --- |
| CO/N=C(\C(=O)N[C@@H]1C(=O)N2C(C(=O)O)=C(CSc3nc(=O)c(=O)[nH]n3C)CS[C@H]12)c1csc(N)n1 [CEFTRIAXONE] | 6.28 | – | – | – | – | – | – | – | – | – | – | – | – | – | – |
| COc1cc(/C=C/C(=O)CC(=O)/C=C/c2ccc(O)c(OC)c2)ccc1O [CURCUMIN] | – | 4.24 | 6.30 | 5.11 | 6.07 | 3.79 | 4.68 | 5.70 | 5.00 | 4.70 | 6.66 | 6.25 | 6.16 | 5.19 | 5.30 |
